# According to US20030077573A1, “Methods of identifying compounds useful in the inhibition of neurodegenerative disease” (priority 1999, published 2003):
# Bridge positions count the residues as written; N and C are the ends. Ends that are not written are not given here.
# Tests used:
# [1] = test system: N9 murine microglial cell line; test: LPS-induced TNF-α release from N9 microglia; assay type: cell-based
# [2] = test system: murine microglial cell line (N9); test: LTB4 release from N9 microglial cells; assay type: cell-based; conditions: 18 hours; for effect on Aβ-induced microglial LTB4 release: Aβ1-40 500 nM + drug (dipyridamole 10 μM)
# Procedure: The murine microglial cell line (N9) is kindly provided by Dr. Paola Ricciardi-Castagnoli (Cellular Pharmacology Center, Milan, Italy) and cells are grown in RPMI 1640 medium supplemented with 5% fetal calf serum, 2 mM glutamine, 100 U/mL penicillin, 0.1 μg/mL streptomycin and 0.05 mM 2-mercaptoethanol. Microglial cells are seeded at 50,000 cells/well in 6-well plates (Falcon, France) and treated with Aβ1-40 (500 nM), dipyridamole (10 μM) or untreated (control) and incubated for 18 hours. Cell supernatants are then collected and immediately frozen at −80° C.
# Cell supernatants (50 μL) are used in the LTB4 assay, and each sample is assayed in duplicate. Manipulations are performed in accordance with the manufacturer's instruction. A spectramax 250 spectrophotometer (Molecular Devices, San Diego, USA) is used to measure absorbance at 405 nm and a standard curve is plotted using a 4-parameter model. Cell extracts for protein determination are obtained by lysing microglial cells in 110 μL of ice cold lysis buffer ([…] pH 7.5, 150 mM NaCl, 1 mM EDTA, 1 mM EGTA, 1% Triton X-100, 2.5 mM sodium pyrophosphate, 1 mM β-Glycerophosphate, 1 mM Na3VO4, 1 μg/ml leupeptin and 1 mM phenylmethylsulfonyl fluoride). Protein concentrations are determined for each sample using the Biorad reagent according to the manufacturer's instruction. LTB4 data are thus expressed as pg LTB4 /mg cellular protein.
# rat aortic rings [3] = test: vasoconstriction assay, ET-1-induced constriction of rat aortic rings; conditions: ET-1 1-5 nM, ODQ 10 μM, YC-1 5 μM, L-NAME 100 μM, dipyridamole 10 μM; for effect on Aβ-enhancement of ET-1-induced vasoconstriction (agent + Aβ): 1 μM Aβ1-40, ANOVA interaction; for effect on ET-1-induced vasoconstriction (agent alone): Aβ1-40 1 μM
# Procedure: (§1) Vasoactivity is measured in rat aortic rings using the system previously described, for example by Crawford, F., et al., The vasoactivity of Aβ peptides, Ann. N. Y. Acad. Sci. 826:3546, (1997); Crawford, F., et al., Characteristics of the in vitro vasoactivity of beta-amyloid peptides, Exp. Neurol. 150:159-168 (1998); Paris, D., et al., Isoform-specific vasoconstriction induced by Apolipoprotein E and modulation of this effect by Alzheimer's β-amyloid peptide. Neurosci. Lett. 256:73-76, (1998); Paris, D., et al., Role of peroxynitrite in the vasoactive and cytotoxic properties of Alzheimer's β-amyloid1-40 peptide, Exp. Neurol. 152:116-122 (1998); and Thomas, T. N., et al., Vasoactive effects and free radical generation by β-amyloid peptides. U.S. Pat. No. 6,011,019. Jan. 4, 2000. Normal male Sprague-Dawley rats (7-8 months old) are sacrificed, and freshly dissected rat aortae are segmented into 3 mm rings and suspended in Kreb's buffer on hooks. These hooks are connected to an isometric transducer linked to a MacLab system. Aortic rings are equilibrated in the tissue bath system for two hours with the Kreb's buffer changed every 30 min.
# For the vasoconstriction assay, the first group of aortic rings are pre-treated with 10 μM ODQ 2 minutes prior to the addition of 1 μM of Aβ1-40. After 5 minutes of incubation with Aβ, the vessels are then subjected to a dose range of ET-1 (from 1 nM to 5 nM). The second set of vessels are treated with Aβ prior to the addition of ET-1. A third set received ODQ treatment followed by ET-1, and the fourth group (control) only received ET-1 treatment. A similar protocol is applied with dipyridamole (10 μM), and YC-1 (5 μM). In all cases the percentage contraction as compared to baseline is determined for each dose of ET-1 used. The means and standard errors (SEs) of all such values are calculated.
# rat aortic rings [4] = test: vasorelaxation assay, phenylephrine-constricted rat aortic rings; conditions: for effect on the relaxation induced by SNP: vessels constricted with 3.5 nM PE, SNP 0.1, 1, 2 μM, Aβ1-40 1 μM or ODQ 10 μM
# Procedure: as §1
# For the vasorelaxation assay, constricted aortic rings are pre-treated for 5 minutes with 1 μM of Aβ with a single dose of phenylephrine (3.5×10^−9 M) along with untreated controls. After waiting for stabilization of vasotension, aortic segments are subjected to a range of SNP doses. Aortic rings pre-constricted with a single dose of phenylephrine (3.5×10^−9 M) are treated with 10 μM ODQ 5 minutes prior to the addition of several doses of SNP. The effect of 10 μM of dipyridamole is also investigated on vessels pre-constricted with 3.5×10^−9 M of phenylephrine. Data are standardized such that the maximum PE-induced constriction is fixed at 100%.
# rat aortic rings [5] = test: quantification of cGMP and cAMP levels in rat aortae (EIA)
# Procedure: Aortic rings are equilibrated in Kreb's buffer for 2 hours and then constricted with a serial dose range of ET-1 (from 1 nM to 5 nM) in the presence or absence of 1 μM of Aβ. Immediately following maximum vasoconstriction (or, in the case of control rings, after 2 hours of equilibration in Kreb's buffer), aortae are frozen in liquid nitrogen. Vessels are then homogenized in 10% trichloracetic acid (TCA) diluted in PBS (at 4° C.) and centrifuged to pellet TCA precipitated proteins. Supernatants are collected and TCA is then removed from samples by three extractions with diethyl ether saturated in deionized water. Residual ether is removed from the sample by heating samples to 70° C. for 10 minutes. Both cGMP and cAMP levels are quantified using competitive binding EIAs (Alexis Biochemicals, San Diego, Calif.) according to the manufacturer's instruction.
# [6] = ET-1 1-5 nM vs untreated control
compound,measurement,setting,value
"Nc1nc2c(nc(Br)n2[C@@H]2O[C@@H]3COP(=O)(O)O[C@H]3[C@H]2O)c(=O)[nH]1 [8-Br cGMP, 8-bromo cGMP]",effect on LPS-induced microglial TNF-α release,"[1]; 8-Br cGMP 1 μM, data not shown",partially inhibit LPS-induced microglial TNF-α release
same,effect on LPS-induced microglial TNF-α release,"[1]; 8-Br cGMP 5 μM, LPS 2.5 ng/mL, 18 h",completely inhibit LPS-induced microglial TNF-α release
same,effect on Aβ-induced microglial LTB4 release,[2],completely block Aβ-induced microglial LTB4 release
"COC(=O)[C@@H](N)CCCNC(=N)N[N+](=O)[O-] [L-NAME, N-ω-nitro-L-arginine methyl ester]",effect on Aβ-enhancement of ET-1-induced vasoconstriction (agent + Aβ),rat aortic rings [3],no statistical interaction is observed
same,effect on ET-1-induced vasoconstriction (agent alone),rat aortic rings [3],does not significantly increase ET-1-induced vasoconstriction
"O=c1onc2cnc3ccccc3n12 [ODQ, 1H-[1,2,4]oxadiazolo[4,3,-α]quinoxalin-1-one]",effect on Aβ-enhancement of ET-1-induced vasoconstriction (agent + Aβ),rat aortic rings [3],constriction which is only additive
same,effect on ET-1-induced vasoconstriction (agent alone),rat aortic rings [3],Neither ODQ or Aβ alone are able to potentiate vasoconstriction induced by ET-1
same,effect on the relaxation induced by SNP,rat aortic rings [4],blocks the relaxation induced by this NO donor
OCCN(CCO)c1nc(N2CCCCC2)c2nc(N(CCO)CCO)nc(N3CCCCC3)c2n1 [dipyridamole],effect on LPS-induced microglial activation (TNF-α release),"[1]; LPS 2.5 ng/mL, 18 h, dipyridamole 10 μM, SNP 10 μM, YC-1 10 μM",markedly reduce microglial activation induced by LPS
same,effect on Aβ-enhancement of ET-1-induced vasoconstriction (agent + Aβ),rat aortic rings [3],blocks Aβ-induced vasoconstriction in a statistically interactive manner
same,effect on ET-1-induced vasoconstriction (agent alone),rat aortic rings [3],opposes ET-1-induced vasoconstriction in an ET-1 dose-dependent manner
same,effect on Aβ-induced microglial LTB4 release,[2],completely prevents the increased LTB4 production induced by Aβ
same,relaxation of aortic rings constricted with phenylephrine,"rat aortic rings [4]; 10 μM dipyridamole, 3.5 nM PE",induced potent relaxation
same,effect on Aβ opposition to relaxation,"rat aortic rings [4]; 10 μM dipyridamole, Aβ-treated vs control vessels, PE-constricted",blocks the opposition to relaxation normally induced by Aβ
same,relaxant effect on quiescent rings,"rat aortic rings [4]; 10 μM dipyridamole, data not shown",no significant relaxant effect
"Aβ1-40: freshly solubilized β-amyloid peptide Aβ1-40, supplied by QCB",cAMP levels in rat aortic rings,rat aortic rings [5]; 1 μM Aβ + ET-1 vs ET-1 alone,not able to modulate cAMP levels
same,cGMP levels in rat aortic rings,rat aortic rings [5]; 1 μM Aβ + ET-1 vs ET-1 alone,significantly lower compared to ET-1 treatment alone
same,microglial LTB4 release,"[2]; Aβ1-40 500 nM, vs untreated cells",significant LTB4 release
same,effect on the relaxation induced by SNP,rat aortic rings [4],"relaxation induced by SNP, an NO-donor, is reduced"
"ET-1: Endothelin-1, one of the most potent cerebrovascular vasoconstrictors (CSCSSLMDKECVYFCHLDIIW; disulfide 1-15, 3-11; ends not checked; UniProt P05305 53-73, looked up)",cAMP levels in rat aortic rings,rat aortic rings [5]; [6],increase
same,cGMP levels in rat aortic rings,rat aortic rings [5]; [6],increase
